Results reported in US20100279413A1, “APPLICATIONS OF UBIQUINONES AND UBIQUINOLS” (ZYMES, LLC, priority 2008, published 2010).

Assays:
cultured fetal rat DRGs = experiment: CoQ10 / HQO dose response: neurite growth and survival of cultured fetal rat DRGs; assay type: cell-based; settings: for mean neurite length: day 16, controls 4.84 mm, p<0.0001
Procedure: In fact, by day 11, the length of neurites around DRGs was longer if the DRGs were cultured with CoQ10 (concentrations ranged from 0.1-50 uM) compared with control DRGs, p<0.0001 for all. FIG. 1A, 1B, 1C.
The aim of the second experiment was to confirm that exposure to 50 uM CoQ10 is not toxic to cultured fetal rat DRGs and also to see if even higher concentrations may be used safely. Eight DRGs (2 plates of 4 DRGs each) were cultured under each of the following conditions: • Control • 50 uM CoQ10 • 75 uM CoQ10 • 100 uM CoQ10
This experiment was carried on for 22 days, which is about as long as DRGs can be sustained in this model, even under control conditions. The experiment was continued for this time period to confirm that CoQ10 remains non-toxic in this model over time.
Neurite lengths around each DRG were measured at four representative points (giving a total of 32 measures at each exposure concentration at each time point) on days 1, 2, 5, 8, 12, 16 and 22.
A third experiment measured growth of DRG's with varying doses of HQO™, 0.1, 10, 100 uM CoQ10. This experiment was done in DRG's isolated from a new rat, which accounts for the difference in neurite length compared to experiments 1 and 2. […] (FIG. 1E)

[1] = system: cultured fetal rat dorsal root ganglia (DRGs); experiment: In vitro model of ATN: NRTI (d4T/ddI) neurotoxicity in cultured fetal rat DRGs; assay type: cell-based
Procedure: Objective: To examine the safety and preventative efficacy of HQO™ using cultured fetal rat dorsal root ganglia (DRGs) as an in vitro model of ATN.
In a separate experiment, DRGs were exposed to a higher dose (50 μM) of d4T alone or with 10 or 100 nM HQO™.

COC1=C(OC)C(=O)C(C/C=C(\C)CC/C=C(\C)CC/C=C(\C)CC/C=C(\C)CC/C=C(\C)CC/C=C(\C)CC/C=C(\C)CC/C=C(\C)CC/C=C(\C)CCC=C(C)C)=C(C)C1=O [CoQ10, coenzyme Q10]
length of neurites around DRGs compared with control DRGs (cultured fetal rat DRGs; day 11, 0.1-50 uM, p<0.0001 for all): longer
mean neurite length (cultured fetal rat DRGs; 75 uM (non-viable DRG excluded)): 6.20 mm
mean neurite length (cultured fetal rat DRGs; 100 uM): 6.07 mm
toxicity in cultured fetal rat DRGs (cultured fetal rat DRGs; first dose finding experiment, concentrations up to 50 uM): no evidence of toxicity
toxicity in cultured fetal rat DRGs (cultured fetal rat DRGs; second experiment, 50, 75, 100 uM, up to 22 days): no evidence of toxicity

CC(=O)O[C@H](CC(=O)[O-])C[N+](C)(C)C [LAC, L-acetyl carnitine]
NRTI (ddI)-induced neurotoxicity of fetal rat DRGs ([1]; heading of Example 3, no data given): Prevents

Cc1cn([C@H]2C=C[C@@H](CO)O2)c(=O)[nH]c1=O [d4T, stavudine]
toxicity in DRGs (NRTI alone) ([1]; 50 μM d4T alone, by day 8): evident
